Source: ChEMBL document CHEMBL3046327, “Nicotinic acid hydrazones: a novel anticonvulsant pharmacophore” (Med Chem Res, 2011)
Active and inactive are the calls of the source. The calls are words filed in the database; no cut-off is given here.

Key:
Mus musculus [1] = test: Anticonvulsant activity in Mus musculus C57B/6 (mouse) assessed protection against subcutaneous pentylenetetrazole-induced seizures at 300 mg/kg, ip after 4 hr; format: functional, organism-based; parameters: dose 300 mg/kg
Mus musculus [2] = test: Anticonvulsant activity in Mus musculus C57B/6 (mouse) assessed protection against maximal electroshock-induced seizures at 300 mg/kg, ip after 4 hr; format: functional, organism-based; parameters: dose 300 mg/kg
Mus musculus [3] = test: Anticonvulsant activity in Mus musculus C57B/6 (mouse) assessed protection against maximal electroshock-induced seizures at 300 mg/kg, ip after 0.5 hr; format: functional, organism-based; parameters: dose 300 mg/kg
Mus musculus [4] = test: Neurotoxicity in Mus musculus C57B/6 (mouse) assessed motor impairment at 300 mg/kg, ip after 0.5 hr by rotarod test; format: toxicity, organism-based; parameters: dose 300 mg/kg, route intraperitoneal; conditions: in vivo
Mus musculus [5] = test: Anticonvulsant activity in Mus musculus C57B/6 (mouse) assessed protection against subcutaneous pentylenetetrazole-induced seizures at 300 mg/kg, ip after 0.5 hr; format: functional, organism-based; parameters: dose 300 mg/kg
Mus musculus [6] = test: Neurotoxicity in Mus musculus C57B/6 (mouse) assessed motor impairment at 300 mg/kg, ip after 4 hr by rotarod test; format: toxicity, organism-based; parameters: dose 300 mg/kg, route intraperitoneal; conditions: in vivo
Mus musculus [7] = test: Anticonvulsant activity in ip dosed Mus musculus C57B/6 (mouse) assessed protection against maximal electroshock-induced seizures after 0.5 hr; format: functional; conditions: C57B/6, ip, read-out: MED
Mus musculus [8] = test: Neurotoxicity in ip dosed Mus musculus C57B/6 (mouse) assessed motor impairment after 4 hr by rotarod test; format: toxicity, organism-based; conditions: in vivo
Mus musculus [9] = test: Anticonvulsant activity in ip dosed Mus musculus C57B/6 (mouse) assessed protection against maximal electroshock-induced seizures after 4 hr; format: functional; conditions: C57B/6, ip, read-out: MED
Mus musculus [10] = test: Neurotoxicity in ip dosed Mus musculus C57B/6 (mouse) assessed motor impairment after 0.5 hr by rotarod test; format: toxicity, organism-based; conditions: in vivo
[11] = Neurotoxicity in ip dosed Mus musculus C57B/6 (mouse) assessed motor impairment by rotarod test; format: toxicity, organism-based; conditions: in vivo
Mus musculus [12] = test: Anticonvulsant activity in ip dosed Mus musculus C57B/6 (mouse) assessed protection against 6 Hz psychomotor seizure after 0.5 hr by minimal clonic seizure test; format: functional; conditions: C57B/6, ip, read-out: MED
Mus musculus [13] = organism: Mus musculus; test: Protective index, ratio of TD50 for Mus musculus C57B/6 (mouse) to ED50 for Mus musculus C57B/6 (mouse) assessed protection against 6 Hz psychomotor seizure by minimal clonic seizure test; format: functional
Mus musculus [14] = test: Anticonvulsant activity in ip dosed Mus musculus C57B/6 (mouse) assessed protection against 6 Hz psychomotor seizure by minimal clonic seizure test; format: functional; conditions: C57B/6, ip
Mus musculus [15] = test: Anticonvulsant activity in ip dosed Mus musculus C57B/6 (mouse) assessed protection against 6 Hz psychomotor seizure after 0.25 hr by minimal clonic seizure test; format: functional; conditions: C57B/6, ip, read-out: MED
[16] = Neurotoxicity in po dosed Rattus norvegicus Sprague-Dawley (rat) assessed motor impairment by rotarod test; format: toxicity, organism-based; conditions: in vivo
Rattus norvegicus [17] = test: Anticonvulsant activity in po dosed Rattus norvegicus Sprague-Dawley (rat) assessed protection against 6 Hz psychomotor seizure by minimal clonic seizure test; format: functional
Rattus norvegicus [18] = organism: Rattus norvegicus; test: Protective index, ratio of TD50 for Rattus norvegicus Sprague-Dawley (rat) to ED50 for Rattus norvegicus Sprague-Dawley (rat) assessed protection against 6 Hz psychomotor seizure by minimal clonic seizure test; format: functional

Row | SMILES | Activity (Mus musculus [1]) | Activity (Mus musculus [2]) | Activity (Mus musculus [3]) | Activity (Mus musculus [4]) | Activity (Mus musculus [5]) | Activity (Mus musculus [6]) | minimal effective dose (Mus musculus [7]) | Activity (Mus musculus [8]) | minimal effective dose (Mus musculus [9]) | Activity (Mus musculus [10]) | TD50 [11] | minimal effective dose (Mus musculus [12]) | Ratio TD50/ED50 (Mus musculus [13]) | ED50 (Mus musculus [14]) | minimal effective dose (Mus musculus [15]) | TD50 [16] | ED50 (Rattus norvegicus [17]) | Ratio TD50/ED50 (Rattus norvegicus [18])
1 | O=C(N/N=C/c1ccc(O)cc1)c1cccnc1 | inactive | inactive | inactive | Non-toxic | inactive | Non-toxic |  |  |  |  |  |  |  |  |  |  |  | 
2 | O=C(N/N=C/c1ccccc1F)c1ccncc1 | inactive | inactive | inactive | Non-toxic | inactive | Non-toxic |  |  |  |  |  |  |  |  |  |  |  | 
3 | O=C(N/N=C/c1cccc(Br)c1)c1ccccc1 | inactive | inactive | inactive | Non-toxic | inactive | Non-toxic |  |  |  |  |  |  |  |  |  |  |  | 
4 | O=C(N/N=C/c1ccc([N+](=O)[O-])cc1)c1ccncc1 [N'-(4-NITROBENZYLIDENE)ISONICOTINOHYDRAZIDE] | inactive | inactive | inactive | Non-toxic | inactive | Non-toxic |  |  |  |  |  |  |  |  |  |  |  | 
5 | O=C(N/N=C/c1cccc(Cl)c1)c1ccccc1 | inactive | inactive | inactive | Non-toxic | inactive | Non-toxic |  |  |  |  |  |  |  |  |  |  |  | 
6 | O=C(N/N=C/c1ccccc1Br)c1ccncc1 | inactive | inactive | inactive | Non-toxic | inactive | Non-toxic |  |  |  |  |  |  |  |  |  |  |  | 
7 | O=C1NC(=O)C(c2ccccc2)(c2ccccc2)N1 [PHENYTOIN] | inactive |  |  |  | inactive |  | 30 mg/kg | 100 mg/kg | 30 mg/kg | 100 mg/kg |  |  |  |  |  |  |  | 
8 | Cc1ccc(C(=O)N/N=C/c2ccc([N+](=O)[O-])cc2)cc1 | inactive | inactive | inactive | Non-toxic | inactive | Non-toxic |  |  |  |  |  |  |  |  |  |  |  | 
9 | O=C(N/N=C/c1cccc(Br)c1)c1cccnc1 | inactive | inactive |  | Non-toxic | inactive | Non-toxic | 100 mg/kg |  |  |  | > 520 mg/kg | 35 mg/kg | >11 | 47.2 mg/kg | 35 mg/kg |  |  | 
10 | O=C(N/N=C/c1ccc(O)cc1)c1ccccc1 | inactive | inactive | inactive | Non-toxic | inactive | Non-toxic |  |  |  |  |  |  |  |  |  |  |  | 
11 | Cc1ccc(C(=O)N/N=C/c2cccc(Cl)c2)cc1 | inactive |  | inactive | Non-toxic | inactive | Non-toxic |  |  | 100 mg/kg |  |  |  |  |  |  |  |  | 
12 | O=C(N/N=C/c1ccc(Cl)cc1)c1cccnc1 | inactive | inactive |  | Non-toxic | inactive | Non-toxic | 100 mg/kg |  |  |  | > 325 mg/kg | 12.5 mg/kg | >20 | 16.1 mg/kg | 12.5 mg/kg | > 320 mg/kg | 31.4 mg/kg | >10
13 | O=C(N/N=C/c1cccc(Cl)c1)c1ccncc1 [N'-(3-CHLOROBENZYLIDENE)ISONICOTINOHYDRAZIDE] | inactive | inactive |  | Non-toxic | inactive | Non-toxic | 300 mg/kg |  |  |  |  |  |  |  |  |  |  | 
14 | Cc1ccc(C(=O)N/N=C/c2ccc(Cl)cc2)cc1 | inactive | inactive | inactive | Non-toxic | inactive | Non-toxic |  |  |  |  |  |  |  |  |  |  |  | 
15 | Cc1ccc(C(=O)N/N=C/c2cccc(Br)c2)cc1 | inactive | inactive | inactive | Non-toxic | inactive | Non-toxic |  |  |  |  |  |  |  |  |  |  |  | 
16 | O=C(N/N=C/c1ccc(Cl)cc1)c1ccncc1 | inactive |  |  |  | inactive |  | 100 mg/kg | 100 mg/kg | 100 mg/kg | 100 mg/kg |  |  |  |  |  |  |  | 
17 | O=C(N/N=C/c1ccc(Cl)cc1)c1ccccc1 | inactive | inactive | inactive | Non-toxic | inactive | Non-toxic |  |  |  |  |  |  |  |  |  |  |  | 
18 | O=C(N/N=C/c1cccc(Br)c1)c1ccncc1 | inactive | inactive | inactive | Non-toxic | inactive | Non-toxic |  |  |  |  |  |  |  |  |  |  |  | 
19 | O=C(N/N=C/c1ccccc1[N+](=O)[O-])c1ccncc1 | inactive | inactive | inactive | Non-toxic | inactive | Non-toxic |  |  |  |  |  |  |  |  |  |  |  | 
20 | O=C(N/N=C/c1cccc(Cl)c1)c1cccnc1 | inactive | inactive |  | Non-toxic | inactive | Non-toxic | 300 mg/kg |  |  |  | > 500 mg/kg | 40 mg/kg | >6.25 | 80 mg/kg |  |  |  | 
21 | O=C(N/N=C/c1ccccc1F)c1ccccc1 | inactive | inactive | inactive | Non-toxic | inactive | Non-toxic |  |  |  |  |  |  |  |  |  |  |  | 
